Columns and labels:
[1] = system: NK cells, macrophages, FoxP3+ Tregs in tumor; test: Immunophenotyping of tumor samples by RT-PCR; format: in vivo; details: TRAMP mouse tumor samples
Procedure: Immunophenotyping of tumor samples by RT-PCR: Tumor RNA samples are extracted from the frozen tumor tissues using the Trizol reagent. Reverse transcription is carried out using a kit from Takara (Catalog No. #RR047A). Quantitative PCR are conducted using a master mix from Invitrogen (Catalog No. #4309155) on an ABI 7900HT Fast Real-Time PCR System. The results are analyzed using a Delta Ct Method. The marker gene and respective oligo sequence used in this study are from the NIH q-RT-PCR primer database (mouseqprimerdepot.nih.gov) these are associated with the Ncrl and Pfrl (NK cell receptor) a marker characteristic to the NK cell and their activation respectively, while the Gmbz is meant for quantifying the release of granzyme B and the FoxP3 associated with CD25+CD4+ Tregs. Statistical Analysis: A one-way ANOVA is also used to assess the statistical difference between the vehicle group and all other groups in the blood sample immune-phenotyping and q-RT-PCR assay as well as on the microarray samples on the indicated day. All the data is analyzed using GraphPad Prism 5. p<0.05 is statistically significant (*, p<0.05; **, p<0.01; ***, p<0.001).

[2] = system: TRAMP mouse model of NEPC; test: Efficacy study (tumor volume) in transgenic mouse model of NEPC (TRAMP mouse); format: in vivo; details: TRAMP mice; talabostat mesylate 20 μg qd p.o.; PD-1 antagonist 10 mg/kg i.p. twice weekly
From the text: Efficacy Study of Talabostat Mesylate and PD-1 Antagonist in Transgenic Mouse Model of NEPC (TRAMP Mouse)
Reagents and Antibodies: RPMI-1640 medium (Catalog No.: A1049101), Glutamax (Catalog No.: 35050061), Trypsin-EDTA (0.25%) (Catalog No.: 25200-056), Penicillin-Streptomycin (Catalog No.: 15070-063), HBSS (Catalog No.: 14175-095) are procured form Gibco, while Fetal bovine serum (FBS) (Catalog No.: 004-001-1A) is purchased from Biological Industries. The anti-PD-1 antibody (PD-1 antagonist (clone: RMPI-14, Catalog no: BE0146)) is supplied by Bioxcell at 6.61 mg/ml. Stock solutions of PD-1 antagonist, at 1 mg/ml concentrations are prepared and kept at 4° C. prior to use. Dosing solutions of PD-1 antagonist are prepared freshly at a concentration of 1 mg/ml, before every administration in sterile phosphate buffered saline (PBS), pH 7.0 and administered a dose of 10 mg/kg, intraperitoneally (i.p) into, 20 g mouse. […]
Tumor size and body weights are measured twice weekly. Tumor volumes are measured twice per week in two dimensions using a caliper, and the volume are expressed in mm^3 using the formula: V=0.5 a×b^2 where a and b are the length and width of the tumor, respectively. […] Tumor volume is expressed in mm^3, is measured with caliper on day 5, 8, 12, 15, 19, 22, 26 and day 29.

talabostat mesylate
FoxP3+ Treg population (relative mRNA expression of FoxP3) in tumor samples [1]: reduction in the FoxP3 population
tumor reduction (tumor volume) [2]: significant effect
